Source: PMC9151520 (Archives of Toxicology, 2022)
Where “and” joins values, the source holds several entries; their conditions need not be identical. Equal values may be shown once. Read-outs that look alike come from different tables or passages of the source.

Tests used:
[1] = system: p53 signaling (p53RE-bla HCT-116 cells)
[2] = system: p53 signaling (p53RE-bla HCT-116 cells); assay: cells; format: cell-based
[3] = system: p53RE-bla HCT-116 cells
[4] = system: p53 signaling (p53RE-bla HCT-116 cells); remark: listed apart in the source
[5] = Homo sapiens, HCT-116, read-out: p53 activation EC50, cherry pick confirmation
[6] = Homo sapiens, HCT-116, read-out: p53 activation EC50, primary screening
[7] = Homo sapiens, HCT-116, read-out: p53 activation efficacy, cherry pick confirmation
[8] = Homo sapiens, HCT-116, read-out: p53 activation efficacy, primary screening
[9] = read-out: EC50, p53 activation, cherry pick confirmation
[10] = read-out: p53 activation EC50, cherry pick confirmation
[11] = read-out: p53 activation EC50, primary screening

| Compound | p53 activation EC50, cherry pick confirmation [1] | p53 activation EC50, primary screening [1] | p53 activation efficacy, cherry pick confirmation [1] | p53 activation efficacy, primary screening [1] | Viability EC50, cherry pick confirmation [3] | Viability EC50, primary screening [3] | Viability efficacy, cherry pick confirmation [3] | Viability efficacy, primary screening [3] | p53 activation EC50, cherry pick confirmation [4] | p53 activation EC50, primary screening [4] | p53 activation efficacy, cherry pick confirmation [4] | p53 activation efficacy, primary screening [4] | EC50, p53 activation, cherry pick confirmation [1] | Efficacy, p53 activation, cherry pick confirmation [2] | EC50, viability, cherry pick confirmation [3] | EC50, viability, primary screening [3] | Efficacy, viability, primary screening [3] | p53 activation efficacy, cherry pick confirmation [2] | p53 activation efficacy, primary screening [2] | EC50 [2, 10] [µM] | also measured |
| --- | --- | --- | --- | --- | --- | --- | --- | --- | --- | --- | --- | --- | --- | --- | --- | --- | --- | --- | --- | --- | --- |
| CC[C@@]1(O)C(=O)OCc2c1cc1n(c2=O)Cc2c-1nc1ccccc1c2/C=N/OC(C)(C)C [Gimatecan] | inactive | inactive | inactive | inactive | inactive | inactive | inactive | inactive | inactive | inactive | inactive | inactive | – | – | – | – | – | – | – | – | EC50 [2, 5]: 0.345 µM; EC50 [2, 6]: 0.118 µM; Emax [2, 7]: 257%; Emax [2, 8]: 118% |
| N=C1NC(=N)c2cc3ccccc3cc21 [1,3-Diiminobenz(f)isoindoline] | – | – | – | – | – | – | – | – | – | – | – | – | – | – | – | – | – | – | – | – | p53 activation EC50 [1]: inactive; p53 activation efficacy [2]: 115.412 and 121.93; EC50 ([2]; read-out: p53 activation EC50): 23.7 µM and 25.2 µM; Viability EC50 [3]: inactive; p53 activation EC50 [4]: inactive |
| CCOP(=S)(OCC)Oc1cc(Cl)c(Br)cc1Cl [Bromophos-ethyl] | – | – | – | – | – | – | – | – | – | – | – | – | inactive | 38.522 | inactive | inactive | inactive | – | – | – | EC50, p53 activation, primary screening [2]: inactive; Efficacy, p53 activation, primary screening [2]: inactive; EC50 [2, 9]: 33.2 µM; Efficacy, viability, cherry pick confirmation [3]: inactive; EC50 [4]: 12.5 µM; EC50 [4, 9]: 6.31 µM |
| CC(=O)[O][Sn]([c]1ccccc1)([c]1ccccc1)[c]1ccccc1 [Triphenyltin acetate] | inactive | inactive | inactive | inactive | – | – | – | – | inactive | inactive | inactive | inactive | – | – | – | – | – | 67.021 | 86.4573 | 14.4 | EC50 [2, 11]: 22 µM; EC50 ([3]; read-out: Viability EC50, cherry pick confirmation): 5.01 µM and 5.33 µM and 6.71 µM; EC50 ([3]; read-out: Viability EC50, primary screening): 5.39 µM and 7.79 µM and 6.43 µM |
| Demeton | inactive | – | – | – | inactive | inactive | inactive | inactive | – | – | – | – | – | – | – | – | – | inactive | inactive | – | p53 activation EC50, cherry pick confirmation [2]: inactive; p53 activation EC50, primary screening [2]: inactive; EC50 [4]: 1.91 µM; EC50 [4, 10]: 1.7 µM |
| CCCSc1ccc2nc(NC(=O)OC)[nH]c2c1 [Albendazole] | inactive | inactive | inactive | inactive | inactive | inactive | inactive | inactive | inactive | inactive | inactive | inactive | – | – | – | – | – | – | – | – | EC50 [2, 5]: 0.113 µM; EC50 [2, 6]: 0.517 µM; Emax [2, 7]: 31.1%; Emax [2, 8]: 40.1% |
| COc1cccc2c1cc([N+](=O)[O-])c1c(C(=O)[O-])cc3c(c12)OCO3.[Na+] [Sodium aristolochate-I] | – | – | – | – | – | – | – | – | – | – | – | – | inactive | inactive | inactive | inactive | inactive | – | – | – | EC50, p53 activation, primary screening [1]: inactive; Efficacy, p53 activation, cherry pick confirmation [1]: inactive; Efficacy, p53 activation, primary screening [1]: inactive; EC50, p53 activation, cherry pick confirmation [2]: inactive; Efficacy, p53 activation, primary screening [2]: 50.4333; EC50 ([2]; read-out: EC50, p53 activation, primary screening): 3.65 µM; EC50 ([3]; read-out: EC50, viability, cherry pick confirmation): 9.67 µM; EC50, p53 activation, cherry pick confirmation [4]: inactive; EC50, p53 activation, primary screening [4]: inactive; Efficacy, p53 activation, cherry pick confirmation [4]: inactive; Efficacy, p53 activation, primary screening [4]: inactive |
| C[C@H]1O[C@@H](n2cc(F)c(=O)[nH]c2=O)[C@H](O)[C@@H]1O [Doxifluridine] | – | – | – | – | – | – | – | – | – | – | – | – | inactive | inactive | inactive | inactive | inactive | – | – | – | EC50, p53 activation, primary screening [1]: inactive; Efficacy, p53 activation, cherry pick confirmation [1]: inactive; Efficacy, p53 activation, primary screening [1]: inactive; EC50, p53 activation, cherry pick confirmation [2]: inactive; EC50 ([2]; Homo sapiens, HCT-116, read-out: EC50, p53 activation, primary screening): 10.6 µM; Emax ([2]; Homo sapiens, HCT-116, read-out: Efficacy, p53 activation, primary screening): 83.9%; Efficacy, viability, cherry pick confirmation [3]: inactive; EC50, p53 activation, cherry pick confirmation [4]: inactive; EC50, p53 activation, primary screening [4]: inactive; Efficacy, p53 activation, cherry pick confirmation [4]: inactive; Efficacy, p53 activation, primary screening [4]: inactive |
| CO.COc1cc(Nc2c(C#N)cnc3cc(OCCCN4CCN(C)CC4)c(OC)cc23)c(Cl)cc1Cl [Bosutinib methanoate] | inactive | inactive | inactive | inactive | inactive | inactive | inactive | inactive | inactive | inactive | inactive | inactive | – | – | – | – | – | 36.685 | 29.3917 | 17.3 | EC50 [2, 11]: 15.4 µM |
| c1cc(N(CC2CO2)CC2CO2)ccc1OCC1CO1 (centres unmarked) [4-(Diglycidylamino)phenyl glycidyl ether] | inactive | inactive | inactive | inactive | inactive | inactive | inactive | inactive | inactive | inactive | inactive | inactive | – | – | – | – | – | 85.4543 | 57.856 | 23.5 | EC50 [2, 11]: 27.3 µM |
